Measurements: US12415794B2 (Edgewise Therapeutics, Inc., priority 2018, dated 2025)
pIC50: −log10 of the molar value.

Columns and labels:
[1] = molecular target: T1, cardiac myofibrils (myosin ATPase); experiment: Cardiac Myofibril ATPase Assay (counter screen); format: biochemical; settings: myofibrils 1.0 mg/mL, KCl omitted
T1 construct: frozen myofibril pellets obtained from cardiac tissue; from tissue
How it was run: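 Frozen cardiac myofibrils at 1.0 mg/mL final, KCl omitted, in a PK-LDH coupled ATPase assay; ADP production tracked as NADH loss by absorbance at 340 nm. Inhibition taken as reduced rate relative to vehicle controls, with IC50 derived.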

[2] = molecular target: skeletal myofibrils (myosin ATPase); experiment: Skeletal Myofibril ATPase Assay; format: biochemical
How it was run: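 Skeletal myofibril ATPase measured by PK-LDH coupled NADH depletion, absorbance 340 nm read every 1.5-2 min over 45 min. Max−min rate normalized to 1% DMSO vehicle as 100%; IC50 from four-parameter logistic fit with bottom ≥0. Cardiac myofibrils used as counter-screen.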

T1 sequence (P12883 whole entry): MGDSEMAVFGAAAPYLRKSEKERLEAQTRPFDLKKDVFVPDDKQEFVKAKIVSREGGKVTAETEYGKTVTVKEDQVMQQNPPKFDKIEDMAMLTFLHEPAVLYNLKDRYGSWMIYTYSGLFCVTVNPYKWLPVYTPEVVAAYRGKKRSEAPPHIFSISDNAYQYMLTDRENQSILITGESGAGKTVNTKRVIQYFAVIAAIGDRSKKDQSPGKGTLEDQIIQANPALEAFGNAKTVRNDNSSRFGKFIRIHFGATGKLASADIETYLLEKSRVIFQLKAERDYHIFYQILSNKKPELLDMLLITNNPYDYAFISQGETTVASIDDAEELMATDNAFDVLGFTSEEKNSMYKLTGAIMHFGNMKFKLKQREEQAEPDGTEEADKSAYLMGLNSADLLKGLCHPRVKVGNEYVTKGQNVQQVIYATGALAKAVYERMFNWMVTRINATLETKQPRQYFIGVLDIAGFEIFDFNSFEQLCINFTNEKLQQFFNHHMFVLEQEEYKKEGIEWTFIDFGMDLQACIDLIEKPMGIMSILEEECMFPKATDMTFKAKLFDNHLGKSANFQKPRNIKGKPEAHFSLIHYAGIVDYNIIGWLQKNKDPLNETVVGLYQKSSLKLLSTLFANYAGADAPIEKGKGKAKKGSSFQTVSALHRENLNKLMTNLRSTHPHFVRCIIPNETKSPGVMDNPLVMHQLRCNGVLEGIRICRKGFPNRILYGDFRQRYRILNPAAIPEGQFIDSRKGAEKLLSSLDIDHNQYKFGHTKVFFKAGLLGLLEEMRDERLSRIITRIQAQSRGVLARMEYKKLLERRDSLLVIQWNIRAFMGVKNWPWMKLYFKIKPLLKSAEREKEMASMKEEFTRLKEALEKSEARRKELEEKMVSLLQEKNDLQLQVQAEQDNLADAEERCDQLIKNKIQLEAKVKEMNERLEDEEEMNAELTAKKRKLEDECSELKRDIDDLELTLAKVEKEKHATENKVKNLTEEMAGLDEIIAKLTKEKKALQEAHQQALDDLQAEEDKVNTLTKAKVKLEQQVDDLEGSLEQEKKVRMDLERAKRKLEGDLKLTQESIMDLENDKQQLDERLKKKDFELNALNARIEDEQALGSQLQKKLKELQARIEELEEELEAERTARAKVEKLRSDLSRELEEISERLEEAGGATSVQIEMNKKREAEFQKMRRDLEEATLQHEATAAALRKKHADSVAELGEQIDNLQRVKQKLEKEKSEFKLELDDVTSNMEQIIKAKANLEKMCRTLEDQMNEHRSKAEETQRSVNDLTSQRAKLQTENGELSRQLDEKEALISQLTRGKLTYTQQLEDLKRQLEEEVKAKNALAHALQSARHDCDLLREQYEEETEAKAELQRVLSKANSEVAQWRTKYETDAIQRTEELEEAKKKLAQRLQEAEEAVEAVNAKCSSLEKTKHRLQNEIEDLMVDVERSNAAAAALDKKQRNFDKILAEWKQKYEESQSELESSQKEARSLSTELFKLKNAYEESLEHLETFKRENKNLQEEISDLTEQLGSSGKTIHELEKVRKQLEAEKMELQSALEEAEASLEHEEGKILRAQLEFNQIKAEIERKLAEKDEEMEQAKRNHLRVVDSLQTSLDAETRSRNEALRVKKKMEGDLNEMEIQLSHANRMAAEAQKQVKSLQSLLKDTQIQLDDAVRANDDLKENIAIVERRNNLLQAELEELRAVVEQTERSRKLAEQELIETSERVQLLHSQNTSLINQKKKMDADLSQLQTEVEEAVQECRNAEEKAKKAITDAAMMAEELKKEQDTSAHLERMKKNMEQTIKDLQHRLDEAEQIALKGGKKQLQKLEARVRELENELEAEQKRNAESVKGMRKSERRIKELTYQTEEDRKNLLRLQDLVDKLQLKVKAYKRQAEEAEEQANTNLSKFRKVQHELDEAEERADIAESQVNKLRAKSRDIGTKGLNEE
T1 sequence (P08590 whole entry partner): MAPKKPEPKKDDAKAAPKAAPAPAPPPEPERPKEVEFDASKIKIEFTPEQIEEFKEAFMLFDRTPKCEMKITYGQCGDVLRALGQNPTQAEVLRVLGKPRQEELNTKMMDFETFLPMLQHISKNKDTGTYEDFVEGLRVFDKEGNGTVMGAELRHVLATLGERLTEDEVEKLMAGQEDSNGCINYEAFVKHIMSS
T1 sequence (P10916 whole entry partner): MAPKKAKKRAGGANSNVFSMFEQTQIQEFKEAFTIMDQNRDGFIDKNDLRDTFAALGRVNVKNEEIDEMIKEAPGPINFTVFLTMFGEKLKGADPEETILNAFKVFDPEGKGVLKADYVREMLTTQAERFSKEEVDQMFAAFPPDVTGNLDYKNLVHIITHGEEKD

Structure (SMILES): COc1ccc(-c2ccc(=O)n(CC(=O)Nc3cccc4[nH]ccc34)n2)cc1 [IIIb-3, N-(1H-indol-4-yl)-2-(3-(4-methoxyphenyl)-6-oxopyridazin-1(6H)-yl)acetamide]
- pIC50 ([1]; Table 5C): < 4.00
- pIC50 ([2]; Table 4C): > 5.00

Structure (SMILES): CC(C)NC(=O)Cn1nc(-c2ccc(OC(F)(F)F)cc2)ccc1=O [II-4]
- pIC50 ([1]; Table 5B): < 4.00
- pIC50 ([2]; Table 4B): > 5.00

Structure (SMILES): O=C(Cn1nc(-c2ccc(OC(F)F)cc2)ccc1=O)NCC1CCC1 [II-18, N-(cyclobutylmethyl)-2-(3-(4-(difluoromethoxy)phenyl)-6-oxopyridazin-1(6H)-yl)acetamide]
- pIC50 ([1]; Table 5B): < 4.00
- pIC50 ([2]; Table 4B): 4.00 to 5.00

Structure (SMILES): Cc1ccc(-c2ccc(=O)n(CC(=O)NC3CCCCC3)n2)cc1 [IIIc-6, N-cyclohexyl-2-(6-oxo-3-(p-tolyl)pyridazin-1(6H)-yl)acetamide]
- pIC50 ([1]; Table 5C): < 4.00
- pIC50 ([2]; Table 4C): 4.00 to 5.00

Structure (SMILES): CC(=O)Nc1ccc(-c2ccc(=O)n(CC(=O)NC(C)C)n2)cc1 [II-14, 2-(3-(4-acetamidophenyl)-6-oxopyridazin-1(6H)-yl)-N-isopropylacetamide]
- pIC50 ([1]; Table 5B): < 4.00
- pIC50 ([2]; Table 4B): 4.00 to 5.00

Structure (SMILES): CCNC(=O)Cn1nc(-c2ccc(OCCN(C)C)nc2)ccc1=O [Compound I-26, 2-(3-(6-(2-(dimethylamino)ethoxy)pyridin-3-yl)-6-oxopyridazin-1(6H)-yl)-N-ethylacetamide]
- pIC50 ([1]; Table 5A): < 4.00
- pIC50 ([2]; Table 4A): < 4.00

Structure (SMILES): CCNC(=O)Cn1nc(-c2ccc(OC(F)F)[n+]([O-])c2)ccc1=O [Compound I-65, 2-(difluoromethoxy)-5-(1-(2-(ethylamino)-2-oxoethyl)-6-oxo-1,6-dihydropyridazin-3-yl)pyridine 1-oxide]
- pIC50 ([1]; Table 5A): < 4.00
- pIC50 ([2]; Table 4A): < 4.00

Structure (SMILES): COc1ccc(-c2ccc(=O)n(CC(=O)NC(C)CCc3ccccc3)n2)c(F)c1 (stereo not shown) [IIIb-36, 2-(3-(2-fluoro-4-methoxyphenyl)-6-oxopyridazin-1(6H)-yl)-N-(4-phenylbutan-2-yl)acetamide]
- pIC50 ([1]; Table 5C): < 4.00
- pIC50 ([2]; Table 4C): 4.00 to 5.00

Structure (SMILES): CCCCNC(=O)Cn1nc(-c2ccc(OC(F)F)cc2)ccc1=O [II-17, N-butyl-2-(3-(4-(difluoromethoxy)phenyl)-6-oxopyridazin-1(6H)-yl)acetamide]
- pIC50 ([1]; Table 5B): < 4.00
- pIC50 ([2]; Table 4B): 4.00 to 5.00

Structure (SMILES): COc1ccc(-c2ccc(=O)n(CC(=O)NCc3ccccc3Cl)n2)c(F)c1 [IIIa-13, N-(2-chlorobenzyl)-2-(3-(2-fluoro-4-methoxyphenyl)-6-oxopyridazin-1(6H)-yl)acetamide]
- pIC50 ([1]; Table 5C): < 4.00
- pIC50 ([2]; Table 4C): > 5.00

Structure (SMILES): COc1ccc(-c2ccc(=O)n(CC(=O)NCCc3ccc(OC)c(OC)c3)n2)cc1 [IIIb-51, N-(3,4-dimethoxyphenethyl)-2-(3-(4-methoxyphenyl)-6-oxopyridazin-1(6H)-yl)acetamide]
- pIC50 ([1]; Table 5C): < 4.00
- pIC50 ([2]; Table 4C): < 4.00

Structure (SMILES): COc1ccc(-c2ccc(=O)n(CC(=O)NCc3ccccn3)n2)cc1 [IIIa-30, 2-(3-(4-methoxyphenyl)-6-oxopyridazin-1(6H)-yl)-N-(pyridin-2-ylmethyl) acetamide]
- pIC50 ([1]; Table 5C): < 4.00
- pIC50 ([2]; Table 4C): < 4.00

Structure (SMILES): COc1ccc(-c2ccc(=O)n(CC(=O)NC3CCCCC3)n2)c(F)c1 [IIIb-60, N-cyclohexyl-2-(3-(2-fluoro-4-methoxyphenyl)-6-oxopyridazin-1(6H)-yl)acetamide]
- pIC50 ([1]; Table 5C): < 4.00
- pIC50 ([2]; Table 4C): < 4.00

Structure (SMILES): CCc1cccc(NC(=O)Cn2nc(-c3ccc(C)cc3)ccc2=O)c1 [IIIc-1, N-(3-ethylphenyl)-2-(6-oxo-3-(p-tolyl)pyridazin-1(6H)-yl)acetamide]
- pIC50 ([1]; Table 5C): < 4.00
- pIC50 ([2]; Table 4C): > 5.00

Structure (SMILES): COc1ccc(-c2ccc(=O)n(CC(=O)NC(C)C)n2)cc1 [IIIb-18, N-isopropyl-2-(3-(4-methoxyphenyl)-6-oxopyridazin-1(6H)-yl)acetamide]
- pIC50 ([1]; Table 5C): < 4.00
- pIC50 ([2]; Table 4C): 4.00 to 5.00

Structure (SMILES): CC(C)(C)NC(=O)Cn1nc(-c2ccc(OC(F)F)cc2)ccc1=O [II-16, N-(tert-butyl)-2-(3-(4-(difluoromethoxy)phenyl)-6-oxopyridazin-1(6H)-yl)acetamide]
- pIC50 ([1]; Table 5B): < 4.00
- pIC50 ([2]; Table 4B): 4.00 to 5.00

Structure (SMILES): O=C(Cn1nc(-c2ccc3c(c2)OCCO3)ccc1=O)Nc1ccccc1F [IIIb-6, 2-(3-(2,3-dihydrobenzo[b][1,4]dioxin-6-yl)-6-oxopyridazin-1(6H)-yl)-N-(2-fluorophenyl)acetamide]
- pIC50 ([1]; Table 5C): 4.00 to 5.00
- pIC50 ([2]; Table 4C): > 5.00

Structure (SMILES): CC(C)(C#N)NC(=O)Cn1nc(-c2ccc(OC(F)F)nc2)ccc1=O [Compound I-35, N-(2-cyanopropan-2-yl)-2-(3-(6-(difluoromethoxy)pyridin-3-yl)-6-oxopyridazin-1(6H)-yl)acetamide]
- pIC50 ([1]; Table 5A): < 4.00
- pIC50 ([2]; Table 4A): 4.00 to 5.00

Structure (SMILES): CC[C@H](C)NC(=O)Cn1nc(-c2ccc(C)cc2)ccc1=O [IIIc-2, (S)-N-(sec-butyl)-2-(6-oxo-3-(p-tolyl)pyridazin-1(6H)-yl)acetamide]
- pIC50 ([1]; Table 5C): < 4.00
- pIC50 ([2]; Table 4C): > 5.00

Structure (SMILES): CCc1ccc(-c2ccc(=O)n(CC(=O)Nc3ccc4c(c3)OCCO4)n2)cc1 [IIIb-44, N-(2,3-dihydrobenzo[b][1,4]dioxin-6-yl)-2-(3-(4-ethylphenyl)-6-oxopyridazin-1(6H)-yl)acetamide]
- pIC50 ([1]; Table 5C): < 4.00
- pIC50 ([2]; Table 4C): < 4.00

Structure (SMILES): COc1ccc(-c2ccc(=O)n(CC(=O)NCCc3ccccc3)n2)cc1 [IIIa-5, 2-(3-(4-methoxyphenyl)-6-oxopyridazin-1(6H)-yl)-N-phenethylacetamide]
- pIC50 ([1]; Table 5C): < 4.00
- pIC50 ([2]; Table 4C): > 5.00

Structure (SMILES): COc1ccc(NC(=O)Cn2nc(-c3ccc(F)cc3)ccc2=O)c(OC)c1 [IIIc-31, N-(2,4-dimethoxyphenyl)-2-(3-(4-fluorophenyl)-6-oxopyridazin-1(6H)-yl)acetamide]
- pIC50 ([1]; Table 5C): < 4.00
- pIC50 ([2]; Table 4C): 4.00 to 5.00

Structure (SMILES): CCNC(=O)Cn1nc(-c2ccc(NC34CC(C)(C3)C4)nc2)ccc1=O [Compound I-60, N-ethyl-2-(3-(6-((3-methylbicyclo[1.1.1]pentan-1-yl)amino)pyridin-3-yl)-6-oxopyridazin-1(6H)-yl)acetamide]
- pIC50 ([1]; Table 5A): < 4.00
- pIC50 ([2]; Table 4A): > 5.00

Structure (SMILES): COc1ccc(-c2ccc(=O)n(CC(=O)NC(C)c3ccccc3Cl)n2)cc1 (stereo not shown) [IIIa-25, N-(1-(2-chlorophenyl)ethyl)-2-(3-(4-methoxyphenyl)-6-oxopyridazin-1(6H)-yl)acetamide]
- pIC50 ([1]; Table 5C): < 4.00
- pIC50 ([2]; Table 4C): 4.00 to 5.00

Structure (SMILES): CCNC(=O)Cn1nc(-c2ccc(NC3CCOCC3)nc2)ccc1=O [Compound I-45, N-ethyl-2-(6-oxo-3-(6-((tetrahydro-2H-pyran-4-pyran-4-yl)amino)pyridin-3-yl)pyridazin-1(6H)-yl)acetamide]
- pIC50 ([1]; Table 5A): < 4.00
- pIC50 ([2]; Table 4A): < 4.00

Structure (SMILES): O=C(Cn1nc(-c2ccc(OC(F)F)nc2)ccc1=O)NC1CC(F)(F)C1 [Compound I-33]
- pIC50 ([1]; Table 5A): < 4.00
- pIC50 ([2]; Table 4A): < 4.00

Structure (SMILES): O=C(Cn1nc(-c2ccc(OC(F)F)cc2)ccc1=O)NCC(F)F [II-15, N-(2,2-difluoroethyl)-2-(3-(4-(difluoromethoxy)phenyl)-6-oxopyridazin-1(6H)-yl)acetamide]
- pIC50 ([1]; Table 5B): < 4.00
- pIC50 ([2]; Table 4B): 4.00 to 5.00

Structure (SMILES): O=C(Cn1nc(-c2ccc(OC(F)F)cc2)ccc1=O)NCC(F)(F)F [II-11, 2-(3-(4-(difluoromethoxy)phenyl)-6-oxopyridazin-1(6H)-yl)-N-(2,2,2-trifluoroethyl) acetamide]
- pIC50 ([1]; Table 5B): < 4.00
- pIC50 ([2]; Table 4B): 4.00 to 5.00

Structure (SMILES): CCCOc1ncc(-c2ccc(=O)n(CC(=O)NC3CCC3)n2)cn1 [Compound I-73, N-cyclobutyl-2-(6-oxo-3-(2-propoxypyrimidin-5-yl)pyridazin-1(6H)-yl)acetamide]
- pIC50 ([1]; Table 5A): < 4.00
- pIC50 ([2]; Table 4A): > 5.00

Structure (SMILES): O=C(Cn1nc(-c2ccccc2)ccc1=O)Nc1ccccc1C(F)(F)F [IIIc-52, 2-(6-oxo-3-phenylpyridazin-1(6H)-yl)-N-(2-(trifluoromethyl)phenyl)acetamide]
- pIC50 ([1]; Table 5C): < 4.00
- pIC50 ([2]; Table 4C): 4.00 to 5.00

Structure (SMILES): COc1ccc(-c2ccc(=O)n(CC(=O)NC3CC3)n2)cc1 [IIIb-22, N-cyclopropyl-2-(3-(4-methoxyphenyl)-6-oxopyridazin-1(6H)-yl)acetamide]
- pIC50 ([1]; Table 5C): < 4.00
- pIC50 ([2]; Table 4C): 4.00 to 5.00

Structure (SMILES): COc1ccc(-c2ccc(=O)n(CC(=O)NCc3ccccc3Cl)n2)cc1C [IIIa-23, N-(2-chlorobenzyl)-2-(3-(4-methoxy-3-methylphenyl)-6-oxopyridazin-1(6H)-yl)acetamide]
- pIC50 ([1]; Table 5C): < 4.00
- pIC50 ([2]; Table 4C): 4.00 to 5.00

Structure (SMILES): COc1ccc(-c2ccc(=O)n(CC(=O)NC(C)CCc3ccccc3)n2)cc1 (stereo not shown) [IIIb-30, 2-(3-(4-methoxyphenyl)-6-oxopyridazin-1(6H)-yl)-N-(4-phenylbutan-2-yl)acetamide]
- pIC50 ([1]; Table 5C): 4.00 to 5.00
- pIC50 ([2]; Table 4C): 4.00 to 5.00

Structure (SMILES): COc1ccc(-c2ccc(=O)n(CC(=O)Nc3ccc4c(c3)OCO4)n2)c(F)c1 [IIIb-33, N-(benzo[d][1,3]dioxol-5-yl)-2-(3-(2-fluoro-4-methoxyphenyl)-6-oxopyridazin-1(6H)-yl)acetamide]
- pIC50 ([1]; Table 5C): < 4.00
- pIC50 ([2]; Table 4C): 4.00 to 5.00

Structure (SMILES): COc1ccc(-c2ccc(=O)n(CC(=O)Nc3ccc(Cl)cc3Cl)n2)cc1 [IIIb-11, N-(2,4-dichlorophenyl)-2-(3-(4-methoxyphenyl)-6-oxopyridazin-1(6H)-yl)acetamide]
- pIC50 ([1]; Table 5C): < 4.00
- pIC50 ([2]; Table 4C): > 5.00

Structure (SMILES): COc1ccc(-c2ccc(=O)n(CC(=O)NCc3ccccc3Cl)n2)cc1 [IIIb-1, N-(2-chlorobenzyl)-2-(3-(4-methoxyphenyl)-6-oxopyridazin-1(6H)-yl)acetamide]
- pIC50 ([1]; Table 5C): < 4.00
- pIC50 ([2]; Table 4C): > 5.00

Structure (SMILES): CCc1ccc(-c2ccc(=O)n(CC(=O)NCc3ccccc3Cl)n2)cc1 [IIIa-18, N-(2-chlorobenzyl)-2-(3-(4-ethylphenyl)-6-oxopyridazin-1(6H)-yl)acetamide]
- pIC50 ([1]; Table 5C): < 4.00
- pIC50 ([2]; Table 4C): > 5.00

Structure (SMILES): CC[C@H](C)NC(=O)Cn1nc(-c2ccccc2)ccc1=O [IIIc-57, (S)-N-(sec-butyl)-2-(6-oxo-3-phenylpyridazin-1(6H)-yl)acetamide]
- pIC50 ([1]; Table 5C): < 4.00
- pIC50 ([2]; Table 4C): 4.00 to 5.00
